These results are taken from patent US10206907B2, “Compounds useful for the treatment of degenerative and inflammatory diseases” (GALAPAGOS NV, priority 2008, dated 2019).

Structures are written as SMILES. Some results are limits rather than exact numbers.

In data set [1] the target is Recombinant human JAK1 catalytic domain (Homo sapiens (Human), UniProt P23458). Briefly: JAK1 inhibition assay. The format is biochemical. The settings on record: semi-quantitative score. A digest of the protocol: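 Radiometric assay read by scintillation counting after phosphoric-acid washes. Percent inhibition calculated from cpm relative to vehicle and 10 μM staurosporine control. IC50 derived from compound dose-dilution series.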

Data set [2] can be described thus: Microsomal stability, human liver microsomes. The format is in vitro ADME. The note with it: percentage of compound remaining after 60 minutes, 3 μM compound. As for the experimental part: (§1) 40 μL of deionised water was added to a well of a polypropylene Matrix 2D barcode labelled storage tube (Thermo Scientific) and pre-incubated at 37° C.
(§2) A co-factor containing MgCl2, glucose-6-phosphate and NADP+ was prepared in deionised water and placed on ice before use.
(§3) A final working solution containing liver microsomes (Xenotech of a species of interest (human, mouse, rat, dog), previously described G6PDH and co-factors was prepared and this mix was incubated for no longer than 20 minutes at room temperature.
(§4) 30 μL of the pre-heated compound dilution was added to 40 μL of pre-heated water in the Matrix tubes and 30 μL of the microsomal mix was added.
(§5) To measure percentage remaining of compound at time zero MeOH or ACN was added (1:1) to the well before adding the microsomal mix.
(§6) The samples which were not stopped are incubated at 37° C., 300 rpm and after 1 hour of incubation the reaction was stopped with MeOH or ACN (1:1).
(§7) After stopping the reaction the samples were mixed and placed on ice for 30 min to precipitate the proteins.
(§8) The samples were analyzed on LCMS with a flow rate of 1 mL/min. Solvent A was 15 mM ammonia and solvent B was methanol or acetonitrile, depending on the stop solution used. […] The percentage remaining after 1 hour incubation was calculated from time 0 and was calculated as the percentage remaining.
(§9) The data on microsomal stability are expressed as a percentage of the total amount of compound remaining after 60 minutes.
A general note: Liver microsomes are vesicles of endoplasmic reticulum, rich in cytochrome P450 enzymes.

Data set [3] in a line: Microsomal stability, rat liver microsomes. The settings on record: percentage of compound remaining after 60 minutes, 3 μM compound. Type of data set: in vitro ADME. As for the experimental part: as §1, §2, §3, §4, §5, §6, §7, §8, §9
The next data set has as its system MMP13 in SW1353 cells. The data set is described as follows: OSM/IL-1β signaling assay (MMP13 levels in SW1353 cells).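 Also: secreted MMP13 captured by antibody, activated with APMA and its activity read by fluorescence, inhibition scaled between vehicle-treated triggered wells (0%) and untriggered wells (100%).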 The format is cell-based. The settings on record: Homo sapiens; SW1353 cells, OSM and IL-1β triggered, MMP13 levels 48 hours after triggering; read-out: MMP13 EC50.
The target of data set [4] is Recombinant human JAK2 catalytic domain (Homo sapiens (Human), UniProt O60674). The data set is described as follows: JAK2 inhibition assay. The format is biochemical. The note with it: semi-quantitative score. A digest of the protocol: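 Radiometric kinase reactions ran for 90 min at 30 °C and were stopped with phosphoric acid, then washed and counted by scintillation. Percent inhibition was set relative to vehicle and to 10 μM staurosporine background. IC50 was derived from dose-dilution series.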

Data set [5] concerns JAK-STAT signalling in HeLa cells. The data set is described as follows: JAK-STAT signalling assay (OSM-triggered pSTAT1(2)-luciferase reporter in HeLa cells). The settings on record: Homo sapiens; HeLa cells, OSM-triggered pSTAT1(2)-luciferase reporter; read-out: STAT signalling EC50. The format is cell-based. As for the experimental part:
HeLa cells were maintained in Dulbecco's Modified Eagle's Medium (DMEM) containing 10% heat inactivated fetal calf serum, 100 U/mL penicillin and 100 μg/mL streptomycin. HeLa cells were used at 70% confluence for transfection. 20,000 cells in 87 μL cell culture medium were transiently transfected with 40 ng pSTAT1(2)-luciferase reporter (Panomics), 8 ng of LacZ reporter as internal control reporter and 52 ng of pBSK using 0.32 μL Jet-PEI (Polyplus) as transfection reagent per well in 96-well plate format. After overnight incubation at 37° C., 10% CO2, transfection medium was removed.
40 μL of cell lysate was used to read β-galactosidase activity by adding 180 μL βGal solution (30 μl ONPG 4 mg/mL+150 μL β-Galactosidase buffer (0.06 M Na2HPO4, 0.04 M NaH2PO4, 1 mM MgCl2)) for 20 min.
Luciferase activity was measured using 40 μL cell lysate plus 40 μl of Steadylite® as described by the manufacturer (Perkin Elmer), on the Envision (Perkin Elmer).
The positive and negative controls were used to calculate z’ and ‘percent inhibition’ (PIN) values.
PIN values were plotted for compounds tested in dose-response and EC50 values were derived.
On the technique in general: Reporter assays use an easily measured gene product as a stand-in for the process of interest.

Sequence of Recombinant human JAK2 catalytic domain (O60674 808-1132): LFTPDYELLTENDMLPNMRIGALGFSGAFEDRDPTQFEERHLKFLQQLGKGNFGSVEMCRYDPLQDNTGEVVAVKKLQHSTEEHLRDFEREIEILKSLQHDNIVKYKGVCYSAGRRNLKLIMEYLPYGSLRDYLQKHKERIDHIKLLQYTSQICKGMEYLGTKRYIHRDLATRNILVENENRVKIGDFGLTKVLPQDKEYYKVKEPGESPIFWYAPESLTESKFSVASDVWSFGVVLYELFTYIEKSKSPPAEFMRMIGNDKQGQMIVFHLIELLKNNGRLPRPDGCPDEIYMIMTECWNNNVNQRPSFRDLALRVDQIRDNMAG
Sequence of Recombinant human JAK1 catalytic domain (P23458 850-1154): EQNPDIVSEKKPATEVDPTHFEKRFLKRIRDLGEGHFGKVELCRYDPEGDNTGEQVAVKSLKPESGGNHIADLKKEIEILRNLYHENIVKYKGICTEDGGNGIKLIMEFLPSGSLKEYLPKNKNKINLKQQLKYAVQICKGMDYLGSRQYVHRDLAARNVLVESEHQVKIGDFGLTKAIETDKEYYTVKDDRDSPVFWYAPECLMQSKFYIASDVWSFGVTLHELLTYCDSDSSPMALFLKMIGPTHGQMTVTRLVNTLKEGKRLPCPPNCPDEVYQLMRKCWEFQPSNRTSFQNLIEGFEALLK

Take `O=C(NC1CC1)c1ccc(-c2cccc3nc(NC(=O)C4CC4)nn23)cc1` [Compound 11, 4-(2-(cyclopropanecarboxamido)-[1,2,4]triazolo[1,5-a]pyridin-5-yl)-N-cyclopropylbenzamide]: the IC50 (in general, the concentration that inhibits the measured activity by half) in data set [1] lay in the range of 101 to 500 nM. For the same compound, the “Microsomal Stability Human (%)” value in data set [2] is listed as “**** (**** 76-100)”. Moreover, the “Microsomal Stability Rat (%)” value in data set [3] is recorded as “**** (**** 76-100)”.

As for `O=C(NC1CCCCC1)c1ccc(-c2cccc3nc(NC(=O)C4CC4)nn23)cc1` [Compound 26, N-cyclohexyl-4-(2-(cyclopropanecarboxamido)-[1,2,4]triazolo[1,5-a]pyridin-5-yl)benzamide], the EC50 (with MMP13 in SW1353 cells; in data set [5]) was greater than 1000 nM in each case. For the same compound, the IC50 in data set [4] and in data set [1] was 101 to 500 nM throughout.

For the compound `CC(C)(C)C1CCN(C(=O)c2ccc(-c3cccc4nc(NC(=O)C5CC5)nn34)cc2)CC1` [Compound 27, N-(5-(4-(4-tert-butylpiperidine-1-carbonyl)phenyl)-[1,2,4]triazolo[1,5-a]pyridin-2-yl)cyclopropanecarboxamide], the half-maximal effective concentration (EC50) (in the data set with MMP13 in SW1353 cells; in data set [5]) was greater than 1000 nM each time. Moreover, the IC50 in data set [4] fell in the range of 501 to 1000 nM; in data set [1], 101 to 500 nM.

Consider `O=C(Nc1nc2cccc(-c3ccc(C(=O)N4CCCNCC4)cc3)n2n1)C1CC1` [Compound 28, N-(5-(4-(1,4-diazepane-1-carbonyl)phenyl)-[1,2,4]triazolo[1,5-a]pyridin-2-yl)cyclopropanecarboxamide], for which the EC50 (in the data set on MMP13 in SW1353 cells; in data set [5]) was greater than 1000 nM in each case. Further, the concentration for half-maximal inhibition (IC50) was greater than 1000 nM in data set [4] and 101 to 500 nM in data set [1].

In the case of `COc1ccc(CN(C)C(=O)c2ccc(-c3cccc4nc(NC(=O)C5CC5)nn34)cc2)cc1` [Compound 31, 4-(2-(cyclopropanecarboxamido)-[1,2,4]triazolo[1,5-a]pyridin-5-yl)-N-(4-methoxybenzyl)-N-methylbenzamide], the EC50 (in the data set with MMP13 in SW1353 cells; in data set [5]) was greater than 1000 nM in each case. The IC50 in data set [4] was 101 to 500 nM; in data set [1] it was less than 100 nM.

Take `CN(Cc1ccccc1)c1ccc(-c2cccc3nc(NC(=O)C4CC4)nn23)cc1` [Compound 157, N-(5-(4-(benzyl(methyl)amino)phenyl)-[1,2,4]triazolo[1,5-a]pyridin-2-yl)cyclopropanecarboxamide]: the 50% inhibitory concentration (IC50) in data set [1] is less than 100 nM. Besides, the “Microsomal Stability Human (%)” value in data set [2] is given as “* (* 0-25)”. The EC50 – broadly, the concentration giving half of the maximal effect – in data set [5] was greater than 1000 nM. The “Microsomal Stability Rat (%)” value in data set [3] is given as “* (* 0-25)”.

For `O=C(Nc1ccc(N2CCOCC2)nc1)c1ccc(-c2cccc3nc(NC(=O)C4CC4)nn23)cc1` [Compound 204, 4-[2-(Cyclopropanecarbonyl-amino)-[1,2,4]triazolo[1,5-a]pyridin-5-yl]-N-(6-morpholin-4-yl-pyridin-3-yl)-benzamide], in data set [1], the IC50 was less than 100 nM. The “Microsomal Stability Human (%)” value in data set [2] is “* (* 0-25)”. In addition, the concentration giving a half-maximal response (EC50) in data set [5] was greater than 1000 nM. Besides, the “Microsomal Stability Rat (%)” value in data set [3] is recorded as “* (* 0-25)”.

With `O=C(Nc1cccnn1)c1ccc(-c2cccc3nc(NC(=O)C4CC4)nn23)cc1` [Compound 221, 4-[2-(Cyclopropanecarbonyl-amino)-[1,2,4]triazolo[1,5-a]pyridin-5-yl]-N-pyridazin-3-yl-benzamide], the EC50 (in the data set with MMP13 in SW1353 cells; in data set [5]) was greater than 1000 nM in each case. Besides, the IC50 is 101 to 500 nM in data set [4] and less than 100 nM in data set [1].

As for `O=C(Nc1nc2cccc(-c3ccc(CNc4cccnn4)cc3)n2n1)C1CC1` [Compound 222, Cyclopropanecarboxylic acid {5-[4-(pyridazin-3-ylaminomethyl)-phenyl]-[1,2,4]triazolo[1,5-a]pyridin-2-yl}-amide], the half-maximal effective concentration (EC50) (with MMP13 in SW1353 cells; in data set [5]) was greater than 1000 nM in each case. The results for the IC50 in data set [4] and in data set [1] were 101 to 500 nM and less than 100 nM, respectively.

For `O=C(Nc1nc2cccc(-c3ccc(CNc4cccnc4)cc3)n2n1)C1CC1` [Compound 223, Cyclopropanecarboxylic acid {5-[4-(pyridin-3-ylaminomethyl)-phenyl]-[1,2,4]triazolo[1,5-a]pyridin-2-yl}-amide], the concentration giving a half-maximal response (EC50) (with MMP13 in SW1353 cells; in data set [5]) was greater than 1000 nM throughout. For the same compound, the IC50 in data set [4] is 501 to 1000 nM; in data set [1] it was less than 100 nM.

On to `O=C(Nc1nc2cccc(-c3ccc(CN4CCOC(c5ccccc5)C4)cc3)n2n1)C1CC1` (centres unmarked) [Compound 231], for which the concentration giving a half-maximal response (EC50) was 1 to 500 nM in the data set on MMP13 in SW1353 cells and greater than 1000 nM in data set [5]. The IC50 in data set [4] was 101 to 500 nM; in data set [1] it was less than 100 nM.

For `O=C(Nc1nc2cccc(-c3ccc(COc4ccccc4)cc3)n2n1)C1CC1` [Compound 238, Cyclopropanecarboxylic acid [5-(4-phenoxymethyl-phenyl)-[1,2,4]triazolo[1,5-a]pyridin-2-yl]-amide], the values for the concentration giving a half-maximal response (EC50) (in the data set with MMP13 in SW1353 cells; in data set [5]) were greater than 1000 nM and 501 to 1000 nM, respectively. Besides, the IC50 in data set [4] and in data set [1] was less than 100 nM throughout.

In the case of `O=C(Nc1nc2cccc(-c3ccc(C(=O)N4CCCC(O)C4)cc3)n2n1)C1CC1` (centres unmarked) [Compound 270, Cyclopropanecarboxylic acid {5-[4-(3-hydroxy-piperidine-1-carbonyl)-phenyl]-[1,2,4]triazolo[1,5-a]pyridin-2-yl)-amide], the 50% effective concentration (EC50) (in the data set with MMP13 in SW1353 cells; in data set [5]) was greater than 1000 nM each time. In addition, the IC50 in data set [4] was 101 to 500 nM; in data set [1], less than 100 nM.

On to `NC(=O)C1CCCCN1C(=O)c1ccc(-c2cccc3nc(NC(=O)C4CC4)nn23)cc1` (centres unmarked) [Compound 275, 1-{4-[2-(Cyclopropanecarbonyl-amino)-[1,2,4]triazolo[1,5-a]pyridin-5-yl]-benzoyl}-piperidine-2-carboxylic acid amide], for which the 50% effective concentration (EC50) (in the data set on MMP13 in SW1353 cells; in data set [5]) was greater than 1000 nM in each case. In addition, the concentration for half-maximal inhibition (IC50) was 101 to 500 nM in data set [4] and less than 100 nM in data set [1].

As for `O=C(Nc1nc2cccc(-c3ccc(C(=O)N4CCCC(CO)C4)cc3)n2n1)C1CC1` (centres unmarked) [Compound 276, Cyclopropanecarboxylic acid {5-[4-(3-hydroxymethyl-piperidine-1-carbonyl)-phenyl]-[1,2,4]triazolo[1,5-a]pyridin-2-yl}-amide], the 50% effective concentration (EC50) (in the data set on MMP13 in SW1353 cells; in data set [5]) was greater than 1000 nM in each case. For the same compound, the IC50 is 101 to 500 nM in data set [4] and less than 100 nM in data set [1].

Take `CN(C)C1CCN(C(=O)c2ccc(-c3cccc4nc(NC(=O)C5CC5)nn34)cc2)C1` (centres unmarked) [Compound 289, Cyclopropanecarboxylic acid {5-[4-(3-dimethylamino-pyrrolidine-1-carbonyl)-phenyl]-[1,2,4]triazolo[1,5-a]pyridin-2-yl}-amide]: the EC50 (in the data set with MMP13 in SW1353 cells; in data set [5]) was greater than 1000 nM in each case. The half-inhibitory concentration (IC50) was 501 to 1000 nM in data set [4] and less than 100 nM in data set [1].

With `O=C(Nc1nc2cccc(-c3ccc(C(=O)N4CCC(COc5cccnc5)CC4)cc3)n2n1)C1CC1` [Compound 292, Cyclopropanecarboxylic acid (5-{4-[4-(pyridin-3-yloxymethyl)-piperidine-1-carbonyl]-phenyl}-[1,2,4]triazolo[1,5-a]pyridin-2-yl)-amide], the EC50 (with MMP13 in SW1353 cells; in data set [5]) was greater than 1000 nM each time. Besides, the 50% inhibitory concentration (IC50) was 101 to 500 nM in data set [4] and less than 100 nM in data set [1].

With `O=C(Nc1nc[nH]n1)c1ccc(-c2cccc3nc(NC(=O)C4CC4)nn23)cc1` [Compound 331, 4-[2-(Cyclopropanecarbonyl-amino)-[1,2,4]triazolo[1,5-a]pyridin-5-yl]-N-(1H-1,2,4-triazol-3-yl)-benzamide], the concentration for half-maximal inhibition (IC50) in data set [4] was less than 100 nM; in data set [1], 101 to 500 nM. In addition, the “Microsomal Stability Human (%)” value in data set [2] was “* (* 0-25)”. Further, in data set [3], the “Microsomal Stability Rat (%)” value is “* (* 0-25)”.
